From PMC6979384, “Characterization of the plant homeodomain (PHD) reader family for their histone tail interactions” (Epigenetics & Chromatin, 2020)

Assays:
Assay in all cases: Histone peptide microarray
Assay type in all cases: binding, human
Details in all cases: sheet "Array Heatmap"
[1] = system: KDM5A (1)
Summary of the method: (§1)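 GST-PHD reader, 0.5 μM, probed on 293-peptide histone array (single/combinatorial PTMs); optimized array protocol; signal = mean ± SD, n = 4.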

[2] = system: ING2
Summary of the method: as §1

[3] = system: MLL5
Summary of the method: as §1

[4] = system: KDM5B (3)
Summary of the method: as §1

[5] = system: SP140L
Summary of the method: as §1

[6] = system: ING1
Summary of the method: as §1

[7] = system: PHF23
Summary of the method: as §1

[8] = system: CHD5 (PCC)
Summary of the method: as §1

[9] = system: KDM5B (1)
Summary of the method: as §1

[10] = system: PHF8
Summary of the method: as §1

[11] = system: DIDO1
Summary of the method: as §1

[12] = system: PHF13
Summary of the method: as §1

[13] = system: PHF21A
Summary of the method: as §1

[14] = system: AIRE (PP)
Summary of the method: as §1

[15] = system: KDM5A (3)
Summary of the method: as §1

[16] = system: ING5
Summary of the method: as §1

[17] = system: DPF2 (PPC2W2)
Summary of the method: as §1

[18] = system: CHD5 (PPCC)
Summary of the method: as §1

[19] = system: TRIM66 (PB)
Summary of the method: as §1

[20] = system: RAG2
Summary of the method: as §1

[21] = system: BPTF (PB)
Summary of the method: as §1

[22] = system: TAF3
Summary of the method: as §1

[23] = system: PHRF1 (RP)
Summary of the method: as §1

[24] = system: BAZ2B
Summary of the method: as §1

[25] = system: CHD4 (PPCC)
Summary of the method: as §1

[26] = system: KDM4C (TTP)
Summary of the method: as §1

[27] = system: ING3
Summary of the method: as §1

[28] = system: PHF2
Summary of the method: as §1

[29] = system: MORC3 (CW)
Summary of the method: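 Purified PHD finger domains fused to GST are screened against 293 synthetic histone peptides bearing one or several post-translational modifications. The protein is used at 0.5 μM, and the signal from four replicate arrays is averaged, with standard deviation given.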

[30] = system: KDM7A
Summary of the method: as §1

[31] = system: ING4
Summary of the method: as §1

[32] = GST-tagged reader, histone peptide array, total n = 4

## H3K18me2: H3 1-20 [Peptide H3K18me2]
[1]; [32]
  Array Heatmap signal, KDM5A (1): 0.4854
[2]; [32]
  Array Heatmap signal, ING2: 0.5955
[3]; [32]
  Array Heatmap signal, MLL5: 0.5113
[4]; [32]
  Array Heatmap signal, KDM5B (3): 0.4828
[5]; [32]
  Array Heatmap signal, SP140L: 0.3547
[6]; [32]
  Array Heatmap signal, ING1: 0.5097
[7]; [32]
  Array Heatmap signal, PHF23: 0.5164
[8]; [32]
  Array Heatmap signal, CHD5 (PCC): 0.7562
[9]; [32]
  Array Heatmap signal, KDM5B (1): 0.731
[10]; [32]
  Array Heatmap signal, PHF8: 0.3314
[11]; [32]
  Array Heatmap signal, DIDO1: 0.6131
[12]; [32]
  Array Heatmap signal, PHF13: 0.5815
[13]; [32]
  Array Heatmap signal, PHF21A: 0.4944
[14]; [32]
  Array Heatmap signal, AIRE (PP): 0.593
[15]; [32]
  Array Heatmap signal, KDM5A (3): 0.5609
[16]; [32]
  Array Heatmap signal, ING5: 0.3565
[17]; [32]
  Array Heatmap signal, DPF2 (PPC2W2): 0.713
[18]; [32]
  Array Heatmap signal, CHD5 (PPCC): 0.548
[19]; [32]
  Array Heatmap signal, TRIM66 (PB): 0.5483
[20]; [32]
  Array Heatmap signal, RAG2: 0.2403
[21]; [32]
  Array Heatmap signal, BPTF (PB): 0.334
[22]; [32]
  Array Heatmap signal, TAF3: 0.2642
[23]; [32]
  Array Heatmap signal, PHRF1 (RP): 0.655
[24]; [32]
  Array Heatmap signal, BAZ2B: 0.4823
[25]; [32]
  Array Heatmap signal, CHD4 (PPCC): 0.5307
[26]; [32]
  Array Heatmap signal, KDM4C (TTP): 0.5076
[27]; [32]
  Array Heatmap signal, ING3: 0.447
[28]; [32]
  Array Heatmap signal, PHF2: 0.4223
[29]; [32]
  Array Heatmap signal, MORC3 (CW): 0.432
[30]; [32]
  Array Heatmap signal, KDM7A: 0.3495
[31]; [32]
  Array Heatmap signal, ING4: 0.4353

## H3K23ac (1-32): H3 1-32
[1]; KDM5A (1), each array performed twice, total n = 4
  Array Heatmap value (peptide array signal): 0.4665
[2]; ING2, each array performed twice, total n = 4
  Array Heatmap value (peptide array signal): 0.596
[3]; MLL5, each array performed twice, total n = 4
  Array Heatmap value (peptide array signal): 0.5116
[4]; KDM5B (3), each array performed twice, total n = 4
  Array Heatmap value (peptide array signal): 0.4657
[5]; SP140L, each array performed twice, total n = 4
  Array Heatmap value (peptide array signal): 0.3597
[6]; ING1, each array performed twice, total n = 4
  Array Heatmap value (peptide array signal): 0.5079
[7]; PHF23, each array performed twice, total n = 4
  Array Heatmap value (peptide array signal): 0.526
[8]; CHD5 (PCC), each array performed twice, total n = 4
  Array Heatmap value (peptide array signal): 0.6958
[9]; KDM5B (1), each array performed twice, total n = 4
  Array Heatmap value (peptide array signal): 0.696
[10]; PHF8, each array performed twice, total n = 4
  Array Heatmap value (peptide array signal): 0.3314
[11]; DIDO1, each array performed twice, total n = 4
  Array Heatmap value (peptide array signal): 0.6401
[12]; PHF13, each array performed twice, total n = 4
  Array Heatmap value (peptide array signal): 0.5924
[13]; PHF21A, each array performed twice, total n = 4
  Array Heatmap value (peptide array signal): 0.4363
[14]; AIRE (PP), each array performed twice, total n = 4
  Array Heatmap value (peptide array signal): 0.5525
[15]; KDM5A (3), each array performed twice, total n = 4
  Array Heatmap value (peptide array signal): 0.4863
[16]; ING5, each array performed twice, total n = 4
  Array Heatmap value (peptide array signal): 0.3453
[17]; DPF2 (PPC2W2), each array performed twice, total n = 4
  Array Heatmap value (peptide array signal): 0.7046
[18]; CHD5 (PPCC), each array performed twice, total n = 4
  Array Heatmap value (peptide array signal): 0.5376
[19]; TRIM66 (PB), each array performed twice, total n = 4
  Array Heatmap value (peptide array signal): 0.6504
[20]; RAG2, each array performed twice, total n = 4
  Array Heatmap value (peptide array signal): 0.2372
[21]; BPTF (PB), each array performed twice, total n = 4
  Array Heatmap value (peptide array signal): 0.3332
[22]; TAF3, each array performed twice, total n = 4
  Array Heatmap value (peptide array signal): 0.2562
[23]; PHRF1 (RP), each array performed twice, total n = 4
  Array Heatmap value (peptide array signal): 0.68
[24]; BAZ2B, each array performed twice, total n = 4
  Array Heatmap value (peptide array signal): 0.4309
[25]; CHD4 (PPCC), each array performed twice, total n = 4
  Array Heatmap value (peptide array signal): 0.5377
[26]; KDM4C (TTP), each array performed twice, total n = 4
  Array Heatmap value (peptide array signal): 0.4876
[27]; ING3, each array performed twice, total n = 4
  Array Heatmap value (peptide array signal): 0.4476
[28]; PHF2, each array performed twice, total n = 4
  Array Heatmap value (peptide array signal): 0.4393
[29]; MORC3 (CW), each array performed twice, total n = 4
  Array Heatmap value (peptide array signal): 0.4909
[30]; KDM7A, each array performed twice, total n = 4
  Array Heatmap value (peptide array signal): 0.3346
[31]; ING4, each array performed twice, total n = 4
  Array Heatmap value (peptide array signal): 0.4368

## H3K23me1 15-34: H3 15-34
[1]; GST-tagged KDM5A (1), arrays performed twice, total replicate number n = 4
  Array Heatmap signal, KDM5A (1): 0.4342
[2]; GST-tagged ING2, arrays performed twice, total replicate number n = 4
  Array Heatmap signal, ING2: 0.5717
[3]; GST-tagged MLL5, arrays performed twice, total replicate number n = 4
  Array Heatmap signal, MLL5: 0.5166
[4]; GST-tagged KDM5B (3), arrays performed twice, total replicate number n = 4
  Array Heatmap signal, KDM5B (3): 0.4273
[5]; GST-tagged SP140L, arrays performed twice, total replicate number n = 4
  Array Heatmap signal, SP140L: 0.3205
[6]; GST-tagged ING1, arrays performed twice, total replicate number n = 4
  Array Heatmap signal, ING1: 0.468
[7]; GST-tagged PHF23, arrays performed twice, total replicate number n = 4
  Array Heatmap signal, PHF23: 0.4553
[8]; GST-tagged CHD5 (PCC), arrays performed twice, total replicate number n = 4
  Array Heatmap signal, CHD5 (PCC): 0.7691
[9]; GST-tagged KDM5B (1), arrays performed twice, total replicate number n = 4
  Array Heatmap signal, KDM5B (1): 0.6704
[10]; GST-tagged PHF8, arrays performed twice, total replicate number n = 4
  Array Heatmap signal, PHF8: 0.3239
[11]; GST-tagged DIDO1, arrays performed twice, total replicate number n = 4
  Array Heatmap signal, DIDO1: 0.5926
[12]; GST-tagged PHF13, arrays performed twice, total replicate number n = 4
  Array Heatmap signal, PHF13: 0.5337
[13]; GST-tagged PHF21A, arrays performed twice, total replicate number n = 4
  Array Heatmap signal, PHF21A: 0.4373
[14]; GST-tagged AIRE (PP), arrays performed twice, total replicate number n = 4
  Array Heatmap signal, AIRE (PP): 0.4449
[15]; GST-tagged KDM5A (3), arrays performed twice, total replicate number n = 4
  Array Heatmap signal, KDM5A (3): 0.3565
[16]; GST-tagged ING5, arrays performed twice, total replicate number n = 4
  Array Heatmap signal, ING5: 0.3097
[17]; GST-tagged DPF2 (PPC2W2), arrays performed twice, total replicate number n = 4
  Array Heatmap signal, DPF2 (PPC2W2): 0.6371
[18]; GST-tagged CHD5 (PPCC), arrays performed twice, total replicate number n = 4
  Array Heatmap signal, CHD5 (PPCC): 0.4785
[19]; GST-tagged TRIM66 (PB), arrays performed twice, total replicate number n = 4
  Array Heatmap signal, TRIM66 (PB): 0.5248
[20]; GST-tagged RAG2, arrays performed twice, total replicate number n = 4
  Array Heatmap signal, RAG2: 0.2067
[21]; GST-tagged BPTF (PB), arrays performed twice, total replicate number n = 4
  Array Heatmap signal, BPTF (PB): 0.3041
[22]; GST-tagged TAF3, arrays performed twice, total replicate number n = 4
  Array Heatmap signal, TAF3: 0.2405
[23]; GST-tagged PHRF1 (RP), arrays performed twice, total replicate number n = 4
  Array Heatmap signal, PHRF1 (RP): 0.3534
[24]; GST-tagged BAZ2B, arrays performed twice, total replicate number n = 4
  Array Heatmap signal, BAZ2B: 0.4158
[25]; GST-tagged CHD4 (PPCC), arrays performed twice, total replicate number n = 4
  Array Heatmap signal, CHD4 (PPCC): 0.5163
[26]; GST-tagged KDM4C (TTP), arrays performed twice, total replicate number n = 4
  Array Heatmap signal, KDM4C (TTP): 0.4583
[27]; GST-tagged ING3, arrays performed twice, total replicate number n = 4
  Array Heatmap signal, ING3: 0.3997
[28]; GST-tagged PHF2, arrays performed twice, total replicate number n = 4
  Array Heatmap signal, PHF2: 0.3956
[29]; GST-tagged MORC3 (CW), arrays performed twice, total replicate number n = 4
  Array Heatmap signal, MORC3 (CW): 0.2751
[30]; GST-tagged KDM7A, arrays performed twice, total replicate number n = 4
  Array Heatmap signal, KDM7A: 0.3872
[31]; GST-tagged ING4, arrays performed twice, total replicate number n = 4
  Array Heatmap signal, ING4: 0.3978
